Test results as given in patent publication US20220248678A1, “HERBICIDAL COMPOUNDS” (SYNGENTA CROP PROTECTION AG, priority 2019, published 2022).

Columns and labels:
Assay in all cases: Post-emergence efficacy, glasshouse
Assay type in all cases: in vivo
Settings in all cases: after 13 days, 100=total damage to plant, 0=no damage to plant
Setaria faberi (SETFA) = test system: Setaria faberi (SETFA)
Method: (§1) Seeds of a variety of test species were shown in standard soil in pots. After cultivation for 14 days (post-emergence) under controlled conditions in a glasshouse (at 24/16° C., day/night; 14 hours light; 65% humidity), the plants were sprayed with an aqueous spray solution derived from the dissolution of the technical active ingredient for each of compounds 1 to 26 from Table A above, in a small amount of acetone and a special solvent and emulsifier mixture referred to as IF50 (11.12% Emulsogen EL360 TM+44.44% N-methylpyrrolidone+44.44% Dowanol DPM glycol ether), to create a 50 g/I solution which was then diluted to required concentration using 0.25% or 1% Empicol ESC70 (Sodium lauryl ether sulphate)+1% ammonium sulphate in water as diluent. These spray test compositions are described as composition numbers C1 to C26, with the numerical value corresponding to the compound number from Table A.
(§2) The test plants were then grown in a glasshouse under controlled conditions (at 24/16° C., day/night; 14 hours light; 65% humidity) and watered twice daily. After 13 days the test was evaluated (100=total damage to plant; 0=no damage to plant).
(§3) Ipomoea hederacea (IPOHE), Euphorbia heterophylla (EPHHL), Chenopodium album (CHEAL), Amaranthus palmeri (AMAPA), Lolium perenne (LOLPE), Digitaria sanguinalis (DIGSA), Eleusine indica (ELEIN), Echinochloa crus-galli (ECHCG), Setaria faberi (SETFA)

[1] = test system: Ipomoea hederacea (IPOHE)
Method: as §1, §2, §3

[2] = test system: Digitaria sanguinalis (DIGSA)
Method: as §1, §2, §3

[3] = test system: Echinochloa crus-galli (ECHCG)
Method: as §1, §2, §3

Eleusine indica (ELEIN) = test system: Eleusine indica (ELEIN)
Method: as §1, §2, §3

[4] = test system: Euphorbia heterophylla (EPHHL)
Method: as §1, §2, §3

[5] = test system: Chenopodium album (CHEAL)
Method: as §1, §2, §3

Lolium perenne (LOLPE) = test system: Lolium perenne (LOLPE)
Method: as §1, §2, §3

[6] = test system: Amaranthus palmeri (AMAPA)
Method: as §1, §2, §3

Structure (SMILES)	Control of weed species SETFA (Setaria faberi (SETFA); 1000 g/Ha)	Control of weed species IPOHE ([1]; 1000 g/Ha)	Control of weed species DIGSA ([2]; 1000 g/Ha)	Control of weed species ECHCG ([3]; 1000 g/Ha)	Control of weed species ELEIN (Eleusine indica (ELEIN); 1000 g/Ha)	Control of weed species EPHHL ([4]; 1000 g/Ha)	Control of weed species CHEAL ([5]; 1000 g/Ha)	Control of weed species LOLPE (Lolium perenne (LOLPE); 1000 g/Ha)	Control of weed species AMAPA ([6]; 1000 g/Ha)	further results
COc1ccc2c(P(=O)([O-])OC)c[n+](C)nc2c1 [Composition C17]	10	10	10	10	10	20	10	0	10	–
CCOP(=O)(O)c1c[n+](C)nc2ccccc12.[Cl-] [Composition C3]	90	100	100	70	90	100	100	50	90	–
COc1cccc2c(P(=O)([O-])OC)c[n+](C)nc12 [Composition C18]	100	80	100	100	100	100	80	80	100	–
COP(=O)([O-])c1c(C)[n+](C)nc2ccccc12 [Composition C9]	70	90	80	40	80	50	90	50	100	–
COP(=O)([O-])c1c[n+](C)nc2c(C)cccc12 [Composition C15]	50	20	70	50	80	100	50	20	40	–
C[n+]1cc(P(=O)([O-])OCC2CC2)c2ccccc2n1 [Composition C7]	90	100	100	80	100	100	90	60	90	–
C[n+]1cc(P(=O)([O-])OCc2ccc(F)cc2)c2ccccc2n1 [Composition C23]	–	–	–	–	–	–	–	–	–	Control of weed species SETFA (Setaria faberi (SETFA); 125 g/Ha): 30; Control of weed species IPOHE ([1]; 125 g/Ha): 10; Control of weed species DIGSA ([2]; 125 g/Ha): 60; Control of weed species ECHCG ([3]; 125 g/Ha): 30; Control of weed species ELEIN (Eleusine indica (ELEIN); 125 g/Ha): 40; Control of weed species EPHHL ([4]; 125 g/Ha): 40; Control of weed species CHEAL ([5]; 125 g/Ha): 10; Control of weed species LOLPE (Lolium perenne (LOLPE); 125 g/Ha): 10; Control of weed species AMAPA ([6]; 125 g/Ha): 20
COP(=O)([O-])c1c[n+](C)nc2ccc(C(F)(F)F)cc12 [Composition C19]	–	–	–	–	–	–	–	–	–	Control of weed species SETFA (Setaria faberi (SETFA); 500 g/Ha): 10; Control of weed species IPOHE ([1]; 500 g/Ha): 0; Control of weed species DIGSA ([2]; 500 g/Ha): 10; Control of weed species ECHCG ([3]; 500 g/Ha): 10; Control of weed species ELEIN (Eleusine indica (ELEIN); 500 g/Ha): 10; Control of weed species EPHHL ([4]; 500 g/Ha): 0; Control of weed species CHEAL ([5]; 500 g/Ha): 10; Control of weed species LOLPE (Lolium perenne (LOLPE); 500 g/Ha): 10; Control of weed species AMAPA ([6]; 500 g/Ha): 10
COP(=O)([O-])c1c[n+](C)nc2cc(C(F)(F)F)ccc12 [Composition C20]	10	60	20	10	10	30	40	10	40	–
